According to patent US20180273531A1, “PYRIMIDINE COMPOUND AND MEDICAL USE THEREOF” (Japan Tobacco Inc., priority 2004, published 2018):

Columns and labels:
Type in all cases: cell-based
[1] = tested on: Renal cancer cell line ACHN cell; assay: Growth inhibitory effect against cancer cell lines (3H-thymidine uptake), ACHN; conditions: Homo sapiens, ACHN
In short: (§1)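 IC50 = concentration reducing ^3H-thymidine incorporation to 50% of DMSO control, measured in triplicate. Compound added 24 hrs after plating (1.0×10^4 cells/well); label (0.25 μCi/well) given after 18 hrs of treatment, followed by 6 hrs further culture and scintillation counting of harvested cells.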

p27 protein = p27 protein induction test (Western blotting); conditions: test substance (0.1 1M), 24 hrs, ACHN cells or HT-29 cells, compared to DMSO, n=2
Description: ACHN cells or HT-29 cells were cultured in a 6 well plate at 2.5×10^5 cells/1.8 mL/well for 24 hrs, a test substance ([…]) dissolved in DMSO was added. After 24 hrs, cells were detached using trypsin-EDTA (ethylene diamine tetraacetic acid) and solubilized with NuPAGE LDS sample buffer (Invitrogen). Using an RC DC protein assay kit (BIO-RAD), the protein concentration of the sample was quantitated, and a sample in an amount corresponding to 10 μg of BSA (bovine serum albumin) was analyzed by Western blotting using an anti-p27 antibody. The density of the band stained with the anti-p27 antibody was measured by a densitometer to quantify the amount of p27 protein. As a control, DMSO was used and the test was performed with n=2 and the average protein amount was determined.

[2] = tested on: colorectal cancer cell line HT-29 cells; assay: Growth inhibitory effect against cancer cell lines (3H-thymidine uptake), HT-29; conditions: Homo sapiens, HT-29, inhibition of 3H-thymidine uptake; test substance 18 hrs, then 3H-thymidine 6 hrs; triplicate
In short: as §1

p15 protein = assay: Evaluation of p15 induction activity (Western blotting); conditions: test substance 0.1 μM, 24 hrs, ACHN cells or HT-29 cells, compared to DMSO, n=2
In short: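 p15 protein quantified by densitometry of anti-p15 Western blots (10 μg protein per lane, mean of n=2). Samples came from HT-29 or ACHN cells given 0.1 μM compound for 24 h after 24 h plating, with DMSO as control.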

| SMILES | IC50 [1] | fold induction at 0.1 µM (p27 protein) | IC50 [2] | fold induction at 0.1 µM (p15 protein) |
| --- | --- | --- | --- | --- |
| CCS(=O)(=O)c1cccc(-n2c(=O)n(C3CC3)c(=O)c3c(Nc4ccc(I)cc4F)n(C)c(=O)c(C)c32)c1 [Example 4-58] | 10 to 100 nM | ≥ 1.5 | < 10 nM | ≥ 1.5 |
| CN(C)S(=O)(=O)c1cccc(-n2c(=O)n(C3CC3)c(=O)c3c(Nc4ccc(Br)cc4F)cc(=O)n(C)c32)c1 [Example 1-224] | 100 to 1000 nM | ≥ 1.5 | < 10 nM | ≥ 1.5 |
| Cc1c(=O)n(C)c(Nc2ccc(I)cc2F)c2c(=O)n(C3CC3)c(=O)n(-c3ccc4c(c3)NC(=O)C4(C)C)c12 [Example 4-128] | 10 to 100 nM | ≥ 1.5 | < 10 nM | ≥ 1.5 |
| CCc1ccc(Nc2c3c(=O)n(C4CC4)c(=O)n(-c4cccc(NC(C)=O)c4)c3c(C)c(=O)n2C)c(F)c1 [Example 4-9] | 10 to 100 nM | ≥ 1.5 | < 10 nM | ≥ 1.5 |
| CCc1ccc(Nc2c3c(=O)n(CC)c(=O)n(-c4cccc(NC(C)=O)c4)c3c(C)c(=O)n2C)c(F)c1 [Example 4-45] | 100 to 1000 nM | ≥ 1.5 | 10 to 100 nM | ≥ 1.5 |
| CNC(=O)c1ccc(-n2c(=O)n(C3CC3)c(=O)c3c(Nc4ccc(I)cc4F)n(C)c(=O)c(C)c32)cc1 [Example 4-92] | 10 to 100 nM | ≥ 1.5 | < 10 nM | ≥ 1.5 |
| C#Cc1ccc(Nc2c3c(=O)n(C4CC4)c(=O)n(-c4ccc(F)c(NC(C)=O)c4)c3c(C)c(=O)n2C)c(F)c1 [Example 4-102] | 100 to 1000 nM | ≥ 1.5 | 10 to 100 nM | ≥ 1.5 |
| CN(C)c1ccc(Nc2cc(=O)n(C)c3c2c(=O)n(C2CC2)c(=O)n3-c2ccccc2F)cc1 [Example 1-114] | 100 to 1000 nM | ≥ 1.5 | 100 to 1000 nM | ≥ 1.5 |
| Cc1c(=O)n(C)c(Nc2ccc(I)cc2F)c2c(=O)n(C3CC3)c(=O)n(-c3cccc(N4CCNS4(=O)=O)c3)c12 [Example 4-114] | 10 to 100 nM | ≥ 1.5 | < 10 nM | ≥ 1.5 |
| Cc1c(=O)n(C)c(Nc2ccc(I)cc2F)c2c(=O)n(C3CC3)c(=O)n(-c3cccc(NC=O)c3)c12 [Example 4-113] | < 10 nM | ≥ 1.5 | < 10 nM | ≥ 1.5 |
| Cc1c(=O)n(C)c(Nc2ccc(Br)cc2F)c2c(=O)n(C3CC3)c(=O)n(-c3cccc(NS(C)(=O)=O)c3)c12 [Example 3-4] | 10 to 100 nM | ≥ 1.5 | < 10 nM | ≥ 1.5 |
| CC(=O)Nc1cccc(-n2c(=O)n(C3CC3)c(=O)c3c(Nc4ccc(N(C)C)cc4F)n(C)c(=O)c(C)c32)c1 [Example 4-61] | 10 to 100 nM | ≥ 1.5 | 10 to 100 nM | ≥ 1.5 |
| Cn1c(=O)cc(Nc2ccc(I)cc2)c2c(=O)n(C3CC3)c(=O)n(-c3ccccc3)c21 [Example 1-221] | 10 to 100 nM | ≥ 1.5 | < 10 nM | ≥ 1.5 |
| Cn1c(=O)cc(Nc2ccc(C3CC3)cc2F)c2c(=O)n(C3CC3)c(=O)n(-c3ccccc3)c21 [Example 1-265] | 100 to 1000 nM | ≥ 1.5 | 10 to 100 nM | ≥ 1.5 |
| CC(=O)Nc1cccc(-n2c(=O)n(C3CC3)c(=O)c3c(Nc4ccc(C5CC5)cc4F)n(C)c(=O)c(C)c32)c1 [Example 4-67] | 10 to 100 nM | ≥ 1.5 | < 10 nM | ≥ 1.5 |
| CN(C)S(=O)(=O)c1ccc(-n2c(=O)n(C3CC3)c(=O)c3c(Nc4ccc(Br)cc4F)cc(=O)n(C)c32)cc1 [Example 1-226] | 100 to 1000 nM | ≥ 1.5 | 10 to 100 nM | ≥ 1.5 |
| Cn1c(=O)cc(Nc2ccc(Br)cc2F)c2c(=O)n(C3CC3)c(=O)n(-c3cccc(CCCO)c3)c21 [Example 1-243] | 100 to 1000 nM | ≥ 1.5 | 10 to 100 nM | ≥ 1.5 |
| CC(C)S(=O)(=O)Nc1cccc(-n2c(=O)n(C3CC3)c(=O)c3c(Nc4ccc(Br)cc4F)cc(=O)n(C)c32)c1 [Example 1-272] | 10 to 100 nM | ≥ 1.5 | 10 to 100 nM | ≥ 1.5 |

| SMILES | IC50 [1] | fold induction at 0.1 µM (p27 protein) | IC50 [2] | fold induction at 0.1 µM (p15 protein) |
| --- | --- | --- | --- | --- |
| Cn1c(=O)cc(Nc2ccc(CCF)cc2)c2c(=O)n(C3CC3)c(=O)n(-c3ccccc3)c21 [Example 1-293] | 100 to 1000 nM | ≥ 1.5 | 100 to 1000 nM | ≥ 1.5 |
| C#Cc1ccc(Nc2c3c(=O)n(CC)c(=O)n(-c4cccc(NC(C)=O)c4)c3c(C)c(=O)n2C)c(F)c1 [Example 4-43] | 100 to 1000 nM | ≥ 1.5 | 10 to 100 nM | ≥ 1.5 |
| Cc1c(=O)n(C)c(Nc2ccc(I)cc2F)c2c(=O)n(C3CC3)c(=O)n(-c3cccc(S(N)(=O)=O)c3)c12 [Example 4-127] | 10 to 100 nM | ≥ 1.5 | < 10 nM | ≥ 1.5 |
| Cc1c(=O)n(C)c(Nc2ccc(I)cc2F)c2c(=O)n(C3CC3)c(=O)n(-c3cccc(NC(=O)c4cn[nH]c4)c3)c12 [Example 4-89] | 100 to 1000 nM | ≥ 1.5 | 10 to 100 nM | ≥ 1.5 |
| CCS(=O)(=O)Nc1cccc(-n2c(=O)n(C3CC3)c(=O)c3c(Nc4ccc(I)cc4F)n(C)c(=O)c(C)c32)c1 [Example 4-2] | < 10 nM | ≥ 1.5 | < 10 nM | ≥ 1.5 |
| Cc1c(=O)n(C)c(Nc2ccc(I)cc2F)c2c(=O)n(C3CC3)c(=O)n(-c3cccc(N4CC(=O)NC4=O)c3)c12 [Example 4-109] | 10 to 100 nM | ≥ 1.5 | < 10 nM | ≥ 1.5 |
| Cc1cc(I)ccc1Nc1cc(=O)n(C)c2c1c(=O)n(C1CC1)c(=O)n2-c1cccc(NS(C)(=O)=O)c1 [Example 1-340] | 10 to 100 nM | ≥ 1.5 | < 10 nM | ≥ 1.5 |
| Cc1c(=O)n(C)c(Nc2ccc(I)cc2F)c2c(=O)n(C3CC3)c(=O)n(-c3ccccc3)c12 [Example 4-72] | 10 to 100 nM | ≥ 1.5 | < 10 nM | ≥ 1.5 |
| CONC(=O)Nc1cccc(-n2c(=O)n(C3CC3)c(=O)c3c(Nc4ccc(Br)cc4F)cc(=O)n(C)c32)c1 [Example 1-327] | 100 to 1000 nM | ≥ 1.5 | 10 to 100 nM | ≥ 1.5 |
| Cc1c(=O)n(C)c(Nc2ccc(I)cc2F)c2c(=O)n(C3CC3)c(=O)n(-c3ccc(F)c(NS(C)(=O)=O)c3)c12 [Example 4-101] | 10 to 100 nM | ≥ 1.5 | < 10 nM | ≥ 1.5 |
| Cn1c(=O)cc(Nc2ccc(Br)cc2F)c2c(=O)n(C3CC3)c(=O)n(-c3cccc(N4CCOCC4=O)c3)c21 [Example 1-219] | 100 to 1000 nM | ≥ 1.5 | 10 to 100 nM | ≥ 1.5 |
| CCc1ccc(Nc2cc(=O)n(C)c3c2c(=O)n(C2CC2)c(=O)n3-c2cccc(NC(C)=O)c2)c(F)c1 [Example 1-296] | 100 to 1000 nM | ≥ 1.5 | < 10 nM | ≥ 1.5 |
| CC(=O)Nc1cccc(-n2c(=O)n(C3CC3)c(=O)c3c(Nc4ccc(CCF)cc4F)cc(=O)n(C)c32)c1 [Example 1-342] | 100 to 1000 nM | ≥ 1.5 | < 10 nM | ≥ 1.5 |
| Cn1c(=O)cc(Nc2ccc3sccc3c2)c2c(=O)n(C3CC3)c(=O)n(-c3ccccc3)c21 [Example 1-328] | 100 to 1000 nM | ≥ 1.5 | 10 to 100 nM | ≥ 1.5 |
| CCc1ccc(Nc2cc(=O)n(C)c3c2c(=O)n(C2CC2)c(=O)n3-c2cccc(NS(=O)(=O)CC)c2)c(F)c1 [Example 1-268] | 10 to 100 nM | ≥ 1.5 | 10 to 100 nM | ≥ 1.5 |
| COCC(=O)Nc1cccc(-n2c(=O)n(C3CC3)c(=O)c3c(Nc4ccc(Br)cc4F)cc(=O)n(C)c32)c1 [Example 1-266] | 100 to 1000 nM | ≥ 1.5 | < 10 nM | ≥ 1.5 |
| Cc1c(=O)n(C)c(Nc2ccc(I)cc2F)c2c(=O)n(C3CC3)c(=O)n(-c3ccc4cn[nH]c4c3)c12 [Example 4-115] | 10 to 100 nM | ≥ 1.5 | < 10 nM | ≥ 1.5 |
| CC(=O)Nc1cccc(-n2c(=O)n(C3CC3)c(=O)c3c(Nc4ccc(C)cc4F)n(C)c(=O)c(C)c32)c1 [Example 4-56] | 100 to 1000 nM | ≥ 1.5 | 10 to 100 nM | ≥ 1.5 |
